Experimental data published in PubChem BioAssay AID2060509 (Molecular Pharmacology Branch, DTP, NCI, 2025).

System: 485176-168-R4-J1-PDC spheroids with HUVEC/MSC, viability
Assay: Anticancer human tumor 485176-168-R4-J1-PDC patient-derived pancreatic adenocarcinoma cell line growth inhibition [GQUAD]
Details: for IC50: curve of first compound; for viability, T/C: stronger effect = lower value
Procedure, shortened: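 Tumor cells were grown as complex spheroids with HUVEC endothelial cells and mesenchymal stem cells as stroma. G-quadruplex stabilizers were combined with targeted agents over half-log dilutions from near the clinical Cmax, or from 10 microM.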

[1] = second compound 0.0316 µM, first compound 0.0316 µM
[2] = second compound 0.0316 µM, first compound 0.316 µM
[3] = second compound 0.1 µM, first compound 0.0316 µM
[4] = second compound 0.1 µM, first compound 0.316 µM
[5] = second compound 0.316 µM, first compound 0.0316 µM
[6] = second compound 0.316 µM, first compound 0.316 µM
[7] = second compound 1 µM, first compound 0.0316 µM
[8] = second compound 1 µM, first compound 0.316 µM
[9] = second compound 3.16 µM, first compound 0.0316 µM
[10] = second compound 3.16 µM, first compound 0.316 µM
[11] = second compound 10 µM, first compound 0.0316 µM
[12] = second compound 10 µM, first compound 0.316 µM
[13] = second compound 0.0316 µM, first compound 0.1 µM
[14] = second compound 0.0316 µM, first compound 1 µM
[15] = second compound 0.0316 µM, first compound 3.16 µM
[16] = second compound 0.0316 µM, first compound 10 µM
[17] = second compound 0.1 µM, first compound 0.1 µM
[18] = second compound 0.1 µM, first compound 1 µM
[19] = second compound 0.1 µM, first compound 3.16 µM
[20] = second compound 0.1 µM, first compound 10 µM
[21] = second compound 0.316 µM, first compound 0.1 µM
[22] = second compound 0.316 µM, first compound 1 µM
[23] = second compound 0.316 µM, first compound 3.16 µM
[24] = second compound 0.316 µM, first compound 10 µM
[25] = second compound 1 µM, first compound 0.1 µM
[26] = second compound 1 µM, first compound 1 µM
[27] = second compound 1 µM, first compound 3.16 µM
[28] = second compound 1 µM, first compound 10 µM
[29] = second compound 3.16 µM, first compound 0.1 µM
[30] = second compound 3.16 µM, first compound 1 µM
[31] = second compound 3.16 µM, first compound 3.16 µM
[32] = second compound 3.16 µM, first compound 10 µM
[33] = second compound 10 µM, first compound 0.1 µM
[34] = second compound 10 µM, first compound 1 µM
[35] = second compound 10 µM, first compound 3.16 µM
[36] = second compound 10 µM, first compound 10 µM
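Also: spheroids exposed to compounds for seven days before readout.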
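For viability, T/C in this document: percent viability relative to DMSO vehicle control wells as 100%.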

CCc1c2c(nc3ccc(O)cc13)-c1cc3c(c(=O)n1C2)COC(=O)[C@]3(O)CC + Cc1[nH]c2ccc(F)cc2c1-c1nc2c3cccnc3c3ncccc3c2[nH]1
IC50 (second compound 0.0316 µM): 4.64 nM | IC50 (second compound 0.1 µM): 5.56 nM | IC50 (second compound 0.316 µM): 7.02 nM | IC50 (second compound 1 µM): 6.08 nM | IC50 (second compound 3.16 µM): 7.23 nM | IC50 (second compound 10 µM): 4.06 nM | viability, T/C (second compound 0.0316 µM, first compound 0.000999 µM): 76.6% | viability, T/C (second compound 0.0316 µM, first compound 0.00316 µM): 58.1% | viability, T/C (second compound 0.0316 µM, first compound 0.00999 µM): 35.2% | viability, T/C [1]: 20.1% | viability, T/C (second compound 0.0316 µM, first compound 0.0999 µM): 17.6% | viability, T/C [2]: 6.23% | viability, T/C (second compound 0.1 µM, first compound 0.000999 µM): 78.8% | viability, T/C (second compound 0.1 µM, first compound 0.00316 µM): 62.2% | viability, T/C (second compound 0.1 µM, first compound 0.00999 µM): 35.6% | viability, T/C [3]: 27.4% | viability, T/C (second compound 0.1 µM, first compound 0.0999 µM): 10.9% | viability, T/C [4]: 5.79% | viability, T/C (second compound 0.316 µM, first compound 0.000999 µM): 83.4% | viability, T/C (second compound 0.316 µM, first compound 0.00316 µM): 71.4% | viability, T/C (second compound 0.316 µM, first compound 0.00999 µM): 38.2% | viability, T/C [5]: 22.4% | viability, T/C (second compound 0.316 µM, first compound 0.0999 µM): 15.7% | viability, T/C [6]: 3.93% | viability, T/C (second compound 1 µM, first compound 0.000999 µM): 71.4% | viability, T/C (second compound 1 µM, first compound 0.00316 µM): 60.9% | viability, T/C (second compound 1 µM, first compound 0.00999 µM): 41.6% | viability, T/C [7]: 23.8% | viability, T/C (second compound 1 µM, first compound 0.0999 µM): 12.5% | viability, T/C [8]: 7.51% | viability, T/C (second compound 3.16 µM, first compound 0.000999 µM): 98.3% | viability, T/C (second compound 3.16 µM, first compound 0.00316 µM): 73.2% | viability, T/C (second compound 3.16 µM, first compound 0.00999 µM): 38.1% | viability, T/C [9]: 24.4% | viability, T/C (second compound 3.16 µM, first compound 0.0999 µM): 13.3% | viability, T/C [10]: 5.95% | viability, T/C (second compound 10 µM, first compound 0.000999 µM): 76.1% | viability, T/C (second compound 10 µM, first compound 0.00316 µM): 50% | viability, T/C (second compound 10 µM, first compound 0.00999 µM): 37.8% | viability, T/C [11]: 27.7% | viability, T/C (second compound 10 µM, first compound 0.0999 µM): 10.8% | viability, T/C [12]: 6.05%

Cc1cccc(N(C)C(=O)C2C(O)CCN2c2nc(C)cc(C(F)(F)F)c2C#N)c1 (stereo not drawn) + Cc1[nH]c2ccc(F)cc2c1-c1nc2c3cccnc3c3ncccc3c2[nH]1
IC50 (second compound 0.0316 µM): > 10000 nM | IC50 (second compound 0.1 µM): > 10000 nM | IC50 (second compound 0.316 µM): > 10000 nM | IC50 (second compound 1 µM): > 10000 nM | IC50 (second compound 3.16 µM): > 10000 nM | IC50 (second compound 10 µM): > 10000 nM | viability, T/C [1]: 102% | viability, T/C [13]: 95.1% | viability, T/C [2]: 99.2% | viability, T/C [14]: 89% | viability, T/C [15]: 94.1% | viability, T/C [16]: 99.2% | viability, T/C [3]: 85.9% | viability, T/C [17]: 95.4% | viability, T/C [4]: 93.1% | viability, T/C [18]: 99% | viability, T/C [19]: 109% | viability, T/C [20]: 114% | viability, T/C [5]: 93.1% | viability, T/C [21]: 108% | viability, T/C [6]: 103% | viability, T/C [22]: 92.2% | viability, T/C [23]: 93.7% | viability, T/C [24]: 96.7% | viability, T/C [7]: 87% | viability, T/C [25]: 100% | viability, T/C [8]: 84.6% | viability, T/C [26]: 85.3% | viability, T/C [27]: 99.8% | viability, T/C [28]: 94.1% | viability, T/C [9]: 95.5% | viability, T/C [29]: 97.1% | viability, T/C [10]: 84.5% | viability, T/C [30]: 89.2% | viability, T/C [31]: 95.1% | viability, T/C [32]: 92.1% | viability, T/C [11]: 80.3% | viability, T/C [33]: 92% | viability, T/C [12]: 80.1% | viability, T/C [34]: 90% | viability, T/C [35]: 78.2% | viability, T/C [36]: 99.1%

O=C(c1cc(Cc2n[nH]c(=O)c3ccccc23)ccc1F)N1CCN(C(=O)C2CC2)CC1 + Cc1[nH]c2ccc(F)cc2c1-c1nc2c3cccnc3c3ncccc3c2[nH]1
IC50 (second compound 0.0316 µM): > 10000 nM | IC50 (second compound 0.1 µM): > 10000 nM | IC50 (second compound 0.316 µM): > 10000 nM | IC50 (second compound 1 µM): > 10000 nM | IC50 (second compound 3.16 µM): > 10000 nM | IC50 (second compound 10 µM): > 10000 nM | viability, T/C [1]: 99.9% | viability, T/C [13]: 75.3% | viability, T/C [2]: 85.6% | viability, T/C [14]: 80.5% | viability, T/C [15]: 91.2% | viability, T/C [16]: 69.9% | viability, T/C [3]: 82.6% | viability, T/C [17]: 93.9% | viability, T/C [4]: 90.3% | viability, T/C [18]: 106% | viability, T/C [19]: 83.2% | viability, T/C [20]: 74.9% | viability, T/C [5]: 93.8% | viability, T/C [21]: 90.5% | viability, T/C [6]: 94.6% | viability, T/C [22]: 95.6% | viability, T/C [23]: 77.8% | viability, T/C [24]: 77.3% | viability, T/C [7]: 92.8% | viability, T/C [25]: 78.9% | viability, T/C [8]: 88.1% | viability, T/C [26]: 86.4% | viability, T/C [27]: 101% | viability, T/C [28]: 68.8% | viability, T/C [9]: 91.4% | viability, T/C [29]: 89.2% | viability, T/C [10]: 85.3% | viability, T/C [30]: 77.6% | viability, T/C [31]: 88.1% | viability, T/C [32]: 62.5% | viability, T/C [11]: 78.5% | viability, T/C [33]: 85.3% | viability, T/C [12]: 70.4% | viability, T/C [34]: 77.1% | viability, T/C [35]: 80% | viability, T/C [36]: 57.5%

O=c1[nH]cc(F)c(=O)[nH]1 + Cc1[nH]c2ccc(F)cc2c1-c1nc2c3cccnc3c3ncccc3c2[nH]1
IC50 (second compound 0.0316 µM): 928 nM | IC50 (second compound 0.1 µM): 967 nM | IC50 (second compound 0.316 µM): > 10000 nM | IC50 (second compound 1 µM): 842 nM | IC50 (second compound 3.16 µM): 2520 nM | IC50 (second compound 10 µM): 807 nM | viability, T/C [1]: 89.8% | viability, T/C [13]: 83.4% | viability, T/C [2]: 75.1% | viability, T/C [14]: 46.7% | viability, T/C [15]: 51.4% | viability, T/C [16]: 46.6% | viability, T/C [3]: 86.7% | viability, T/C [17]: 96.3% | viability, T/C [4]: 80.9% | viability, T/C [18]: 45.9% | viability, T/C [19]: 48.8% | viability, T/C [20]: 52.5% | viability, T/C [5]: 92.7% | viability, T/C [21]: 102% | viability, T/C [6]: 76.8% | viability, T/C [22]: 55.5% | viability, T/C [23]: 46.2% | viability, T/C [24]: 54.8% | viability, T/C [7]: 81.9% | viability, T/C [25]: 104% | viability, T/C [8]: 68.5% | viability, T/C [26]: 49.8% | viability, T/C [27]: 43.2% | viability, T/C [28]: 47.2% | viability, T/C [9]: 93.7% | viability, T/C [29]: 86.5% | viability, T/C [10]: 69.5% | viability, T/C [30]: 65.1% | viability, T/C [31]: 39.7% | viability, T/C [32]: 47.2% | viability, T/C [11]: 94.1% | viability, T/C [33]: 80.5% | viability, T/C [12]: 60.5% | viability, T/C [34]: 46.8% | viability, T/C [35]: 41.6% | viability, T/C [36]: 48.5%
